# Source: ChEMBL document CHEMBL4732075, “PROTACs suppression of GSK-3β, a crucial kinase in neurodegenerative diseases” (Eur J Med Chem, 2021)
# The source made the active and inactive calls. The calls are words filed in the database; no cut-off is given here.
# Assays:
# [1] = biological target: T1, Glycogen synthase kinase-3 beta (Homo sapiens, UniProt P49841); experiment: Inhibition of N-terminal His6-tagged recombinant human GSK3beta H350L mutant expressed in baculovirus infected Sf21 cells using GSM as substrate incubated for 30 mins in presence of ATP by Kinase-Glo luminescent assay
# Target sequence in this assay (P49841 whole entry): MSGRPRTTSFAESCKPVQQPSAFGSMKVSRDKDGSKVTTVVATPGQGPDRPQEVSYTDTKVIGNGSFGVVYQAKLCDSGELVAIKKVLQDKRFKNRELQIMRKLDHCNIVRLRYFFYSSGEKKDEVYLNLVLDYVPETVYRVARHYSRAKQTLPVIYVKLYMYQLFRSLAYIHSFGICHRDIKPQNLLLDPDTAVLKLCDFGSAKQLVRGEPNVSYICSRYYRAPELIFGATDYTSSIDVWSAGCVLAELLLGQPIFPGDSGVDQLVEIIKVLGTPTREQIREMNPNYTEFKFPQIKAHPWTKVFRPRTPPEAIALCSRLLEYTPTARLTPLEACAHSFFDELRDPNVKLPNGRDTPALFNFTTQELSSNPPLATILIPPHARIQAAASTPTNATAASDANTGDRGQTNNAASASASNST
# [2] = biological target: T2, Protein cereblon/Glycogen synthase kinase-3 beta (Rattus norvegicus) (UniProt P18266+Q56AP7); experiment: Protac activity at CRBN/GSK3beta in rat PC12 cells assessed as GSK3beta degradation by measuring GSK3beta protein level at 10 uM after 10 hrs by Western blotting analysis; assay type: cell-based; details: PC-12
# T2 sequence (P18266 whole entry, looked up): as the sequence (P49841 whole entry) above, with V240M, T390P, T392A, A400T, T402A counted along it
# T2 sequence (Q56AP7 whole entry, looked up): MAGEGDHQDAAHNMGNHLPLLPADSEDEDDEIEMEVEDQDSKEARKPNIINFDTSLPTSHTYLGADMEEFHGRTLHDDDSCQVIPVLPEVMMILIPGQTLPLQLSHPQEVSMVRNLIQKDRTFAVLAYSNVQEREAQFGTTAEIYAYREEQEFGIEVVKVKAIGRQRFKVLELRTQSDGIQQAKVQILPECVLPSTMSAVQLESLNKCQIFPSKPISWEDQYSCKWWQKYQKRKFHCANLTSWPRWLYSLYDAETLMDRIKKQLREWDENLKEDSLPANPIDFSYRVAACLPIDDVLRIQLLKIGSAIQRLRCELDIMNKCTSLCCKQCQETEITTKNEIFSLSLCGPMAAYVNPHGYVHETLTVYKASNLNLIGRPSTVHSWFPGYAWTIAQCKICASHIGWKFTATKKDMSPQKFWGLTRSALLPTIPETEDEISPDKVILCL
# [3] = biological target: Cyclin-dependent kinase 9 (Homo sapiens) (UniProt P50750); experiment: Inhibition of CDK9 (unknown origin) at 300 nM relative to control
# Cyclin-dependent kinase 9 (Homo sapiens), sequence (P50750 whole entry): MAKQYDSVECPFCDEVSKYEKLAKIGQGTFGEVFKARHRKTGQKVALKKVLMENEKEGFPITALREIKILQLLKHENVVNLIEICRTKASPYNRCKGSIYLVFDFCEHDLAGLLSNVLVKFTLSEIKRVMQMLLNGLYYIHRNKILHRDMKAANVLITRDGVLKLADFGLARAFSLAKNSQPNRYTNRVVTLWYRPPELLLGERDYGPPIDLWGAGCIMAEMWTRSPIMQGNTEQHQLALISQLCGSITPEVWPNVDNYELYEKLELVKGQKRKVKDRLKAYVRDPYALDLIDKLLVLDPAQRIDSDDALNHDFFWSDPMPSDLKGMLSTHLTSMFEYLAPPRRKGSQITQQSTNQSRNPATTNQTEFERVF
# [4] = biological target: T2, Protein cereblon/Glycogen synthase kinase-3 beta (Rattus norvegicus); experiment: Protac activity at CRBN/GSK3beta in rat PC12 cells assessed as GSK3beta degradation by measuring GSK3beta protein level at […] after 10 hrs by Western blotting analysis (reference value: 100 %); assay type: cell-based; details: PC-12, dose 8.3 µM
# [5] = biological target: T2, Protein cereblon/Glycogen synthase kinase-3 beta (Rattus norvegicus); experiment: Protac activity at CRBN/GSK3beta in rat PC12 cells assessed as GSK3beta degradation by measuring reduction in GSK3beta protein level after 10 hrs by Western blotting analysis; assay type: cell-based; details: PC-12, dose 2.8-25 µM
# [6] = biological target: Cyclin-dependent kinase 1 (Homo sapiens) (UniProt P06493); experiment: Inhibition of CDK1 (unknown origin) at 300 nM relative to control
# Cyclin-dependent kinase 1 (Homo sapiens), sequence (P06493 whole entry, looked up): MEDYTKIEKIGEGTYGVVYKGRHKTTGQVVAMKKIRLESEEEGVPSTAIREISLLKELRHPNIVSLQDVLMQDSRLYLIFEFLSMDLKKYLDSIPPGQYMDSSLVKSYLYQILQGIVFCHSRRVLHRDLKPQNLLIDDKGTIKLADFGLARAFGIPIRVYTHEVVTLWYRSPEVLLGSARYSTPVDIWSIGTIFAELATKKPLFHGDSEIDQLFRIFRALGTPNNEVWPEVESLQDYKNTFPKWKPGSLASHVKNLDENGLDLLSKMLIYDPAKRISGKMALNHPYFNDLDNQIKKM
# [7] = biological target: T3, Mitogen-activated protein kinase 13 (Homo sapiens) (UniProt O15264); experiment: Inhibition of p38delta (unknown origin) at 300 nM relative to control
# T3 sequence (whole entry): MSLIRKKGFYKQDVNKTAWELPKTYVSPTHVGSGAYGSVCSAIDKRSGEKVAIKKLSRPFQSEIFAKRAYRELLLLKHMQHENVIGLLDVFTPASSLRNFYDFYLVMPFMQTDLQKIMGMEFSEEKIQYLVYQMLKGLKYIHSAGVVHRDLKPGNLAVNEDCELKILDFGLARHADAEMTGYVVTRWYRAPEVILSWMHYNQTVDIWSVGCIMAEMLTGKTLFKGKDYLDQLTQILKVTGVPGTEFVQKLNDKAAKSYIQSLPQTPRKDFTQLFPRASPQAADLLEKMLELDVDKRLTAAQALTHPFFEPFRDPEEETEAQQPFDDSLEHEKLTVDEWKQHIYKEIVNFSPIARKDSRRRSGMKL
# [8] = biological target: Mitogen-activated protein kinase 9 (Homo sapiens) (UniProt P45984); experiment: Inhibition of JNK2 (unknown origin) at 300 nM relative to control
# Mitogen-activated protein kinase 9 (Homo sapiens), sequence (P45984 whole entry, looked up): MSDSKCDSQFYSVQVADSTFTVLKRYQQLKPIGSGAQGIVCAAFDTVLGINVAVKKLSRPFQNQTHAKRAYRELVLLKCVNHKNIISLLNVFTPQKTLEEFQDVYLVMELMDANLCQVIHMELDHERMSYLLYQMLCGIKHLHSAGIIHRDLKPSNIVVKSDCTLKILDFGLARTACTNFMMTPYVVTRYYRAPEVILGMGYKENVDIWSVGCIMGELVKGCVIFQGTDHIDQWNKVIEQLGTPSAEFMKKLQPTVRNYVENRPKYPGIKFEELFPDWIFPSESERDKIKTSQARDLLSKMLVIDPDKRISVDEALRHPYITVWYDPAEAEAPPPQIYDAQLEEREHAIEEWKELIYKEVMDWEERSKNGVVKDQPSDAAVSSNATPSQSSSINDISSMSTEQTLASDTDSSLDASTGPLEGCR
# [9] = biological target: T2, Protein cereblon/Glycogen synthase kinase-3 beta (Rattus norvegicus); experiment: Protac activity at CRBN/GSK3beta in rat PC12 cells assessed as GSK3beta degradation by measuring GSK3beta protein level at […] preincubated for 2 hrs with GSK3beta inhibitor, G1 followed by compound addition and measured after 8 hrs by Western blotting analysis (reference value: 100 %); assay type: cell-based; parameters: scale not given: the % may be the effect or the level left; details: PC-12, dose 8.3 µM
# [10] = biological target: Mitogen-activated protein kinase 11 (Homo sapiens) (UniProt Q15759); experiment: Inhibition of p38beta (unknown origin) at 300 nM relative to control
# Mitogen-activated protein kinase 11 (Homo sapiens), sequence (Q15759 whole entry): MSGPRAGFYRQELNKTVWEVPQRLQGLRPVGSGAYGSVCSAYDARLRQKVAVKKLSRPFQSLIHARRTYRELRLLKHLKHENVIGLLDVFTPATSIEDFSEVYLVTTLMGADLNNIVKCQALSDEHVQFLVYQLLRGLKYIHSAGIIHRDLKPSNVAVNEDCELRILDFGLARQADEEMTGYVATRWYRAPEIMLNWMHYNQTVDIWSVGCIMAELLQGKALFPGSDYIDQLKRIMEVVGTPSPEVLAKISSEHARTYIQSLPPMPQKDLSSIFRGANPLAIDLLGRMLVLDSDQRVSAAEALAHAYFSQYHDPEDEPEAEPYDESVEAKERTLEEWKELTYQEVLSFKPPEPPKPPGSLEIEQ
# [11] = biological target: Cyclin-dependent kinase 7 (Homo sapiens) (UniProt P50613); experiment: Inhibition of CDK7 (unknown origin) at 300 nM relative to control
# [12] = biological target: Cyclin-dependent kinase 4 (Homo sapiens) (UniProt P11802); experiment: Inhibition of CDK4 (unknown origin) at 300 nM relative to control
# Cyclin-dependent kinase 4 (Homo sapiens), sequence (P11802 whole entry): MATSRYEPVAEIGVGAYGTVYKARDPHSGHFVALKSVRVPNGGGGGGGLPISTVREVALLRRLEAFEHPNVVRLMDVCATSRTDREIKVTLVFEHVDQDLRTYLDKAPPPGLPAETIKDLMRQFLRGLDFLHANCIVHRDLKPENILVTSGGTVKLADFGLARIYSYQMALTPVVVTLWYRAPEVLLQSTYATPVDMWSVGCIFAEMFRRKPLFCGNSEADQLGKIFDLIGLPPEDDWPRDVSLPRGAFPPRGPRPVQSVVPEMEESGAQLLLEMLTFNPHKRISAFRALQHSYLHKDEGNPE
# [13] = biological target: T2, Protein cereblon/Glycogen synthase kinase-3 beta (Rattus norvegicus); experiment: Protac activity at CRBN/GSK3beta in rat PC12 cells assessed as GSK3beta degradation by measuring GSK3beta protein level at […] preincubated for 2 hrs with […] ligand, pomalidomide followed by compound addition and measured after 8 hrs by Western blotting analysis (reference value: 100 %); assay type: cell-based; details: PC-12, dose 8.3 µM
# [14] = biological target: Mitogen-activated protein kinase 3 (Homo sapiens) (UniProt P27361); experiment: Inhibition of ERK1 (unknown origin) at 300 nM relative to control
# Mitogen-activated protein kinase 3 (Homo sapiens), sequence (P27361 whole entry): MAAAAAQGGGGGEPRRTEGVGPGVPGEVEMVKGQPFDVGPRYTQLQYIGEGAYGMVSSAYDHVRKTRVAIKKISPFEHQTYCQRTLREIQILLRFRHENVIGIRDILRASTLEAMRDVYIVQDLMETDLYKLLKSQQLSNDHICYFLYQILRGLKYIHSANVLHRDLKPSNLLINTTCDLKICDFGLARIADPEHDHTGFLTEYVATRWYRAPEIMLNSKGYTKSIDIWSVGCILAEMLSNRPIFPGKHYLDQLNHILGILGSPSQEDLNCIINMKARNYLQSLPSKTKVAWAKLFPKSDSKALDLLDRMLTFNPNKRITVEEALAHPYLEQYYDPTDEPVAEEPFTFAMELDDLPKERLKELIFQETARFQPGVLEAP
# [15] = biological target: Mitogen-activated protein kinase 10 (Homo sapiens) (UniProt P53779); experiment: Inhibition of JNK3 (unknown origin) at 300 nM relative to control
# [16] = biological target: Mitogen-activated protein kinase 1 (Homo sapiens) (UniProt P28482); experiment: Inhibition of ERK2 (unknown origin) at 300 nM relative to control
# Mitogen-activated protein kinase 1 (Homo sapiens), sequence (P28482 whole entry): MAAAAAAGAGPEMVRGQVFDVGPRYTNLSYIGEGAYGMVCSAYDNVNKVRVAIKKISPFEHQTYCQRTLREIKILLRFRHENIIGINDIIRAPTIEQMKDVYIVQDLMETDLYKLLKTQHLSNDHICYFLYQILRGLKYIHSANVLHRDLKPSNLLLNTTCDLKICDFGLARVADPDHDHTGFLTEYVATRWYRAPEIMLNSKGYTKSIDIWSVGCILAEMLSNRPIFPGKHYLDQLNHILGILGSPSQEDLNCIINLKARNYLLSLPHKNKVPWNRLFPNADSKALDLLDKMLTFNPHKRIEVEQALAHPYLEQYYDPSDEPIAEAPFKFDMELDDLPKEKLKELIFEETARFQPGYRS
# HT-22 = experiment: Neuroprotective activity against glutamate-induced cell death in mouse HT22 cells at 5 uM preincubated for 10 hrs followed by glutamate challenge and measured after 24 hrs by fluorescence inverted microscopic analysis; assay type: functional, cell-based
# [17] = biological target: Glycogen synthase kinase-3 alpha (Homo sapiens) (UniProt P49840); experiment: Inhibition of GSK3alpha (unknown origin) at 300 nM relative to control
# Glycogen synthase kinase-3 alpha (Homo sapiens), sequence (P49840 2-483 limits assumed): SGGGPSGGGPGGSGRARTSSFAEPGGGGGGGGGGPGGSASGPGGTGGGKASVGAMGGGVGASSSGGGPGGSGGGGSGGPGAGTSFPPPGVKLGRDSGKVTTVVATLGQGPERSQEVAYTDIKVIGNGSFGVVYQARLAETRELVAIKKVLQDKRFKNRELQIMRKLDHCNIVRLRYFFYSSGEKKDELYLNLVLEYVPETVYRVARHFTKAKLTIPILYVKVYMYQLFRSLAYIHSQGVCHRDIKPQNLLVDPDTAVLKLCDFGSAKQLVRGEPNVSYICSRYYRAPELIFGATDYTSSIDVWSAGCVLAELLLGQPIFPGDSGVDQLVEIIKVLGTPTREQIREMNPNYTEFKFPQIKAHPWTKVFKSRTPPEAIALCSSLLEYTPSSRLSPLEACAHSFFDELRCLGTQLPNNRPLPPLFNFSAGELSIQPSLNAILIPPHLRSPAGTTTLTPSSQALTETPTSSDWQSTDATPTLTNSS
# [18] = biological target: T1, Glycogen synthase kinase-3 beta; experiment: Inhibition of GSK3beta (unknown origin) at 300 nM relative to control
# [19] = biological target: T2, Protein cereblon/Glycogen synthase kinase-3 beta (Rattus norvegicus); experiment: Protac activity at CRBN/GSK3beta in rat PC12 cells assessed as GSK3beta degradation by measuring GSK3beta protein level at 25 uM after 10 hrs by Western blotting analysis (reference value: 100 %); assay type: cell-based; details: PC-12
# [20] = biological target: Mitogen-activated protein kinase 14 (Homo sapiens) (UniProt Q16539); experiment: Inhibition of p38alpha (unknown origin) at 300 nM relative to control
# [21] = biological target: Dual specificity tyrosine-phosphorylation-regulated kinase 1A (Homo sapiens) (UniProt Q13627); experiment: Inhibition of DYRK1alpha (unknown origin) at 300 nM relative to control
# [22] = biological target: Dual specificity tyrosine-phosphorylation-regulated kinase 1B (Homo sapiens) (UniProt Q9Y463); experiment: Inhibition of DYRK1beta (unknown origin) at 300 nM relative to control
# Dual specificity tyrosine-phosphorylation-regulated kinase 1B (Homo sapiens), sequence (Q9Y463 whole entry, looked up): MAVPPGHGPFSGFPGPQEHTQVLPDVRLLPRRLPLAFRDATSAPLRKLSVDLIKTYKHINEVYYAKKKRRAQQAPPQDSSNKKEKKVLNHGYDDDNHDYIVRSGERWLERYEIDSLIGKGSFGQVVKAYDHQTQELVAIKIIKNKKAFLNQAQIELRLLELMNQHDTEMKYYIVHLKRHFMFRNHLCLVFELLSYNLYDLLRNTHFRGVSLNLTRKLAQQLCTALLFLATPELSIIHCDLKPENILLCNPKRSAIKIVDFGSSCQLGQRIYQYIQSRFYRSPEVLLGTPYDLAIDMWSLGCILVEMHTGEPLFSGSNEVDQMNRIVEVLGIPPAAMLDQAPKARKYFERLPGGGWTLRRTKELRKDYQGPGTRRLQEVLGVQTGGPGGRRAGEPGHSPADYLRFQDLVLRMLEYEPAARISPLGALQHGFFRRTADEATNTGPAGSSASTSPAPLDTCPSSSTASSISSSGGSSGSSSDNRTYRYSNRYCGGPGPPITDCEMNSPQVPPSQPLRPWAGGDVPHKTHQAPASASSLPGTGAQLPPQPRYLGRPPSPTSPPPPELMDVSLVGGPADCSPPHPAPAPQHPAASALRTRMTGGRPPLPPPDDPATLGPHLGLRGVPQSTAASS
# [23] = biological target: T2, Protein cereblon/Glycogen synthase kinase-3 beta (Rattus norvegicus); experiment: Protac activity at CRBN/GSK3beta in rat PC12 cells assessed as GSK3beta degradation by measuring GSK3beta protein level at 2.8 uM after 10 hrs by Western blotting analysis (reference value: 100 %); assay type: cell-based; details: PC-12
# BV-2 = experiment: Anti-neuroinflammatory activity in mouse BV2 cells assessed as reduction in LPS-induced TNFalpha production at 5 uM pretreated for 5 hrs followed by LPS challenge and measured after 24 hrs by immunofluorescence confocal microscopic analysis; assay type: functional, cell-based; details: time 29.0 hrs
# [24] = biological target: T2, Protein cereblon/Glycogen synthase kinase-3 beta (Rattus norvegicus); experiment: Protac activity at CRBN/GSK3beta in rat PC12 cells assessed as GSK3beta degradation by measuring GSK3beta protein level at […] preincubated for 2 hrs with proteasome inhibitor, MG132 followed by compound addition and measured after 8 hrs by Western blotting analysis (reference value: 100 %); assay type: cell-based; parameters: scale not given: the % may be the effect or the level left; details: PC-12, dose 8.3 µM
# [25] = biological target: T2, Protein cereblon/Glycogen synthase kinase-3 beta (Rattus norvegicus); experiment: Protac activity at CRBN/GSK3beta in rat PC12 cells assessed as GSK3beta degradation by measuring GSK3beta protein level at 20 uM after 10 hrs by Western blotting analysis (reference value: 100 %); assay type: cell-based; details: PC-12
smiles,measurement,setting,value
CNC(=O)c1sc(-c2ccnc(NC(=O)C3CC3)c2)nc1OCCC#Cc1cccc2c1CN(C1CCC(=O)NC1=O)C2=O (stereo not drawn),IC50,[1],> 1000 nM
COc1nc(-c2ccnc(NC(=O)C3CC3)c2)sc1C(=O)NCCCCCCNC(=O)COc1cccc2c1C(=O)N(C1CCC(=O)NC1=O)C2=O (stereo not drawn),IC50,[1],243 nM
NC(=O)c1sc(-c2ccnc(NC(=O)C3CC3)c2)nc1OCCOCC#Cc1ccc2c(c1)C(=O)N(C1CCC(=O)NC1=O)C2=O (stereo not drawn),GSK3beta protein level remaining,[2],75.3%
same,IC50,[1],27.7 nM
CNC(=O)c1sc(-c2ccnc(NC(=O)C3CC3)c2)nc1OCCCCCCCCCCOc1cccc2c1C(=O)N(C1CCC(=O)NC1=O)C2=O (stereo not drawn),GSK3beta protein level remaining,[2],85.6%
same,IC50,[1],70.4 nM
CNC(=O)c1sc(-c2ccnc(NC(=O)C3CC3)c2)nc1OCCCC#Cc1ccc2c(c1)C(=O)N(C1CCC(=O)NC1=O)C2=O (stereo not drawn),GSK3beta protein level remaining,[2],99.2%
same,IC50,[1],79.1 nM
CNC(=O)c1sc(-c2ccnc(NC(=O)C3CC3)c2)nc1OCCCCCCOc1cccc2c1C(=O)N(C1CCC(=O)NC1=O)C2=O (stereo not drawn),IC50,[1],71.6 nM
CNC(=O)c1sc(-c2ccnc(NC(=O)C3CC3)c2)nc1OCCOCC#Cc1ccc2c(c1)C(=O)N(C1CCC(=O)NC1=O)C2=O (stereo not drawn),GSK3beta protein level remaining,[2],68.8%
same,IC50,[1],19.7 nM
CNC(=O)c1sc(-c2ccnc(NC(=O)C3CC3)c2)nc1OCCOCCOCCn1cc(COc2cccc3c2C(=O)N(C2CCC(=O)NC2=O)C3=O)nn1 (stereo not drawn),GSK3beta protein level remaining,[2],62.7%
same,IC50,[1],46.9 nM
CNC(=O)c1sc(-c2ccnc(NC(=O)C3CC3)c2)nc1OCCOCCOCCOCCOCCOc1cccc2c1C(=O)N(C1CCC(=O)NC1=O)C2=O (stereo not drawn),GSK3beta protein level remaining,[2],95.5%
same,IC50,[1],69.3 nM
CNC(=O)c1sc(-c2ccnc(NC(=O)C3CC3)c2)nc1OCCOCCOCCOc1cccc2c1C(=O)N(C1CCC(=O)NC1=O)C2=O (stereo not drawn),GSK3beta protein level remaining,[2],92.8%
same,IC50,[1],105 nM
CNC(=O)c1sc(-c2ccnc(NC(=O)C3CC3)c2)nc1OCCCCCCCCOc1cccc2c1C(=O)N(C1CCC(=O)NC1=O)C2=O (stereo not drawn),GSK3beta protein level remaining,[2],95.6%
same,IC50,[1],23.8 nM
COc1nc(-c2ccnc(NC(=O)C3CC3)c2)sc1C(=O)NCCCCNC(=O)COc1cccc2c1C(=O)N(C1CCC(=O)NC1=O)C2=O (stereo not drawn),IC50,[1],639 nM
COc1nc(-c2ccnc(NC(=O)C3CC3)c2)sc1C(=O)NCCCNC(=O)COc1cccc2c1C(=O)N(C1CCC(=O)NC1=O)C2=O (stereo not drawn),IC50,[1],874 nM
CNC(=O)c1sc(-c2ccnc(NC(=O)C3CC3)c2)nc1OCCCCCCCCn1cc(COc2cccc3c2C(=O)N(C2CCC(=O)NC2=O)C3=O)nn1 (stereo not drawn),inhibition,[3],3.27%
same,Activity,[4],36.5%
same,Activity,[5],Dose-dependent effect
same,inhibition,[6],4.01%
same,inhibition,[7],18.4%
same,GSK3beta protein level remaining,[2],25.2%
same,inhibition,[8],1.78%
same,Activity,[9],102%
same,IC50,[1],83.1 nM
same,inhibition,[10],6.94%
same,inhibition,[11],3.65%
same,inhibition,[12],4.09%
same,Activity,[13],109%
same,inhibition,[14],6.79%
same,inhibition,[15],13.8%
same,inhibition,[16],5.84%
same,Activity,HT-22,Active
same,inhibition,[17],88.9%
same,inhibition,[18],81.5%
same,Activity,[19],16.7%
same,inhibition,[20],5.63%
same,inhibition,[21],40.4%
same,inhibition,[22],19.6%
same,Activity,[23],55.8%
same,Activity,BV-2,Active
same,Activity,[24],96.6%
Nc1cccc2c1C(=O)N(C1CCC(=O)NC1=O)C2=O (stereo not drawn),GSK3beta protein level remaining,[2],109%
CNC(=O)c1sc(-c2ccnc(NC(=O)C3CC3)c2)nc1OCCOCC#Cc1cccc2c1CN(C1CCC(=O)NC1=O)C2=O (stereo not drawn),GSK3beta protein level remaining,[2],89.7%
same,IC50,[1],49.2 nM
NC(=O)c1sc(-c2ccnc(NC(=O)C3CC3)c2)nc1O,GSK3beta protein level remaining,[2],104%
same,Activity,[25],111%
CNC(=O)c1sc(-c2ccnc(NC(=O)C3CC3)c2)nc1OCCCC#Cc1cccc2c1CN(C1CCC(=O)NC1=O)C2=O (stereo not drawn),GSK3beta protein level remaining,[2],85.1%
same,IC50,[1],295 nM
CNC(=O)c1sc(-c2ccnc(NC(=O)C3CC3)c2)nc1OCCCCCCCCCCCCOc1cccc2c1C(=O)N(C1CCC(=O)NC1=O)C2=O (stereo not drawn),GSK3beta protein level remaining,[2],58.1%
same,IC50,[1],98 nM
CNC(=O)c1sc(-c2ccnc(NC(=O)C3CC3)c2)nc1OCCOCCOCCOCCOc1cccc2c1C(=O)N(C1CCC(=O)NC1=O)C2=O (stereo not drawn),GSK3beta protein level remaining,[2],71.2%
same,IC50,[1],73.2 nM
CNC(=O)c1sc(-c2ccnc(NC(=O)C3CC3)c2)nc1OCCOCCOCCOCCn1cc(COc2cccc3c2C(=O)N(C2CCC(=O)NC2=O)C3=O)nn1 (stereo not drawn),GSK3beta protein level remaining,[2],54%
same,IC50,[1],79.5 nM
NC(=O)c1sc(-c2ccnc(NC(=O)C3CC3)c2)nc1OCCOCC#Cc1cccc2c1CN(C1CCC(=O)NC1=O)C2=O (stereo not drawn),GSK3beta protein level remaining,[2],86.9%
same,IC50,[1],63.8 nM
NC(=O)c1sc(-c2ccnc(NC(=O)C3CC3)c2)nc1OCCC#Cc1ccc2c(c1)C(=O)N(C1CCC(=O)NC1=O)C2=O (stereo not drawn),IC50,[1],> 1000 nM
